Values of other authors, collected in patent US20090029952A1, “UNIQUE COMBINATION OF […] ACID, ETHYLENEDIAMINE DIHYDROIODIDE (EDDI), AND BUFFER FOR USE IN ANIMAL DRINKING WATER” (priority 2007, published 2009).

maximum solubility of aspirin alone in water (alone in water, or in the presence of sodium acetate or sodium diacetate): 0.1 % by weight
solubility in water (water, from chemical handbooks): 0.1%
SMILES: CC(=O)Oc1ccccc1C(=O)O [aspirin, acetylsalicylic acid]
